Reference: PubChem BioAssay (NCI)
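Abbreviation: GI50, concentration required for 50% inhibition of growth. TGI: total growth inhibition.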

What was measured:
Assay in all cases: NCI-60 cell line screen, 384-well format
[1] = system: SNB-75 CNS
[2] = system: HT29 colon
[3] = system: OVCAR-4 ovarian
[4] = system: OVCAR-5 ovarian
[5] = system: SNB-19 CNS
[6] = system: RXF 393 renal
[7] = system: HS 578T breast
[8] = system: NCI-H460 NSCLC
[9] = system: UACC-62 melanoma
[10] = system: SN12C renal
[11] = system: MDA-MB-435 melanoma
[12] = system: MOLT-4 leukemia
[13] = system: HCT-116 colon
[14] = system: A498 renal
[15] = system: CCRF-CEM leukemia
[16] = system: NCI-H23 lung
[17] = system: PC-3 prostate
[18] = system: SK-OV-3 ovarian
[19] = system: ACHN renal
[20] = system: HL-60(TB) leukemia
[21] = system: COLO 205 colon
[22] = system: SF-268 CNS
[23] = system: MCF7 breast
[24] = system: SF-539 CNS
[25] = system: MALME-3M melanoma
[26] = system: NCI/ADR-RES ovarian
[27] = system: U251 glioblastoma
[28] = system: CAKI-1 renal
[29] = system: SF-295 CNS
[30] = system: EKVX NSCLC
[31] = system: MDA-MB-231 breast
[32] = system: KM12 colon
[33] = system: SW-620 colon
[34] = system: BT-549 breast
[35] = system: UACC-257 melanoma
[36] = system: SK-MEL-5 melanoma
[37] = system: LOX IMVI melanoma
[38] = system: NCI-H322M lung
[39] = system: NCI-H522 lung
[40] = system: HOP-92 NSCLC
[41] = system: T-47D breast
[42] = system: HOP-62 NSCLC
[43] = system: OVCAR-3 ovarian
[44] = system: 786-0 renal
[45] = system: HCT-15 colon
[46] = system: DU-145 prostate
[47] = system: UO-31 renal
[48] = system: NCI-H226 lung
[49] = system: TK-10 renal
[50] = system: K-562 leukemia
[51] = system: IGROV1 ovarian
[52] = system: RPMI-8226 leukemia
[53] = system: SK-MEL-28 melanoma
[54] = system: HCC-2998 colon
[55] = system: OVCAR-8 ovarian
[56] = system: MDA-MB-468 breast
[57] = system: M14 melanoma
[58] = system: A549 NSCLC

Question: With `COC[C@H](NC(=O)c1cnc(C)s1)C(=O)N[C@@H](COC)C(=O)N[C@@H](Cc1ccccc1)C(=O)[C@@]1(C)CO1` as the compound, how does the GI50 [1] read?
Answer: < 10 nM

Question: And the TGI [1]?
Answer: < 10 nM

Question: What about the GI50 [2] of the same compound?
Answer: < 10 nM

Question: What about the TGI [2] of the same compound?
Answer: < 10 nM

Question: What about the GI50 [3] of the same compound?
Answer: 12.3 nM

Question: What about the TGI [3] of the same compound?
Answer: 29.8 nM

Question: What about the GI50 [4] of the same compound?
Answer: < 10 nM

Question: And the TGI [4]?
Answer: 81.2 nM

Question: And the GI50 [5]?
Answer: < 10 nM

Question: What about the TGI [5] of the same compound?
Answer: 16.4 nM

Question: What about the GI50 [6] of the same compound?
Answer: < 10 nM

Question: And the TGI [6]?
Answer: < 10 nM

Question: What about the GI50 [7] of the same compound?
Answer: < 10 nM

Question: What about the TGI [7] of the same compound?
Answer: < 10 nM

Question: And the GI50 [8]?
Answer: 23.1 nM

Question: And the TGI [8]?
Answer: 99.6 nM

Question: And the GI50 [9]?
Answer: < 10 nM

Question: And the TGI [9]?
Answer: < 10 nM

Question: What about the GI50 [10] of the same compound?
Answer: 10.7 nM

Question: What about the TGI [10] of the same compound?
Answer: 30.3 nM

Question: And the GI50 [11]?
Answer: < 10 nM

Question: And the TGI [11]?
Answer: < 10 nM

Question: And the GI50 [12]?
Answer: < 10 nM

Question: And the TGI [12]?
Answer: < 10 nM

Question: And the GI50 [13]?
Answer: < 10 nM

Question: And the TGI [13]?
Answer: < 10 nM

Question: And the GI50 [14]?
Answer: < 10 nM

Question: And the TGI [14]?
Answer: 10.3 nM

Question: What about the GI50 [15] of the same compound?
Answer: < 10 nM

Question: And the TGI [15]?
Answer: < 10 nM

Question: And the GI50 [16]?
Answer: < 10 nM

Question: What about the TGI [16] of the same compound?
Answer: < 10 nM

Question: And the GI50 [17]?
Answer: 10.5 nM

Question: What about the TGI [17] of the same compound?
Answer: 24 nM

Question: And the GI50 [18]?
Answer: < 10 nM

Question: What about the TGI [18] of the same compound?
Answer: 23 nM

Question: What about the GI50 [19] of the same compound?
Answer: < 10 nM

Question: And the TGI [19]?
Answer: 156 nM

Question: What about the GI50 [20] of the same compound?
Answer: 10.7 nM

Question: And the TGI [20]?
Answer: 23 nM

Question: What about the GI50 [21] of the same compound?
Answer: < 10 nM

Question: And the TGI [21]?
Answer: 1530 nM

Question: What about the GI50 [22] of the same compound?
Answer: < 10 nM

Question: And the TGI [22]?
Answer: < 10 nM

Question: And the GI50 [23]?
Answer: < 10 nM

Question: And the TGI [23]?
Answer: 325 nM

Question: What about the GI50 [24] of the same compound?
Answer: < 10 nM

Question: What about the TGI [24] of the same compound?
Answer: < 10 nM

Question: What about the GI50 [25] of the same compound?
Answer: < 10 nM

Question: What about the TGI [25] of the same compound?
Answer: < 10 nM

Question: What about the GI50 [26] of the same compound?
Answer: 1290 nM

Question: What about the TGI [26] of the same compound?
Answer: 2910 nM

Question: And the GI50 [27]?
Answer: 10.2 nM

Question: And the TGI [27]?
Answer: 25.6 nM

Question: What about the GI50 [28] of the same compound?
Answer: < 10 nM

Question: And the TGI [28]?
Answer: 1790 nM

Question: And the GI50 [29]?
Answer: < 10 nM

Question: And the TGI [29]?
Answer: < 10 nM

Question: What about the GI50 [30] of the same compound?
Answer: 14.4 nM

Question: And the TGI [30]?
Answer: 77.3 nM

Question: And the GI50 [31]?
Answer: < 10 nM

Question: And the TGI [31]?
Answer: < 10 nM

Question: And the GI50 [32]?
Answer: < 10 nM

Question: What about the TGI [32] of the same compound?
Answer: < 10 nM

Question: And the GI50 [33]?
Answer: < 10 nM

Question: And the TGI [33]?
Answer: < 10 nM

Question: And the GI50 [34]?
Answer: < 10 nM

Question: What about the TGI [34] of the same compound?
Answer: < 10 nM

Question: And the GI50 [35]?
Answer: < 10 nM

Question: And the TGI [35]?
Answer: 11.7 nM

Question: And the GI50 [36]?
Answer: < 10 nM

Question: And the TGI [36]?
Answer: < 10 nM

Question: What about the GI50 [37] of the same compound?
Answer: < 10 nM

Question: What about the TGI [37] of the same compound?
Answer: 12 nM

Question: What about the GI50 [38] of the same compound?
Answer: < 10 nM

Question: And the TGI [38]?
Answer: 236 nM

Question: And the GI50 [39]?
Answer: < 10 nM

Question: And the TGI [39]?
Answer: < 10 nM

Question: What about the GI50 [40] of the same compound?
Answer: < 10 nM

Question: And the TGI [40]?
Answer: < 10 nM

Question: And the GI50 [41]?
Answer: < 10 nM

Question: And the TGI [41]?
Answer: < 10 nM

Question: And the GI50 [42]?
Answer: < 10 nM

Question: And the TGI [42]?
Answer: < 10 nM

Question: And the GI50 [43]?
Answer: < 10 nM

Question: And the TGI [43]?
Answer: < 10 nM

Question: And the GI50 [44]?
Answer: < 10 nM

Question: And the TGI [44]?
Answer: 127 nM

Question: What about the GI50 [45] of the same compound?
Answer: 36.8 nM

Question: And the TGI [45]?
Answer: 154 nM

Question: What about the GI50 [46] of the same compound?
Answer: < 10 nM

Question: What about the TGI [46] of the same compound?
Answer: 223 nM

Question: And the GI50 [47]?
Answer: 17.2 nM

Question: And the TGI [47]?
Answer: 33 nM

Question: What about the GI50 [48] of the same compound?
Answer: < 10 nM

Question: What about the TGI [48] of the same compound?
Answer: < 10 nM

Question: And the GI50 [49]?
Answer: < 10 nM

Question: And the TGI [49]?
Answer: 22.5 nM

Question: What about the GI50 [50] of the same compound?
Answer: 11 nM

Question: And the TGI [50]?
Answer: 35.4 nM

Question: And the GI50 [51]?
Answer: 15 nM

Question: What about the TGI [51] of the same compound?
Answer: 51.2 nM

Question: What about the GI50 [52] of the same compound?
Answer: < 10 nM

Question: What about the TGI [52] of the same compound?
Answer: < 10 nM

Question: What about the GI50 [53] of the same compound?
Answer: < 10 nM

Question: What about the TGI [53] of the same compound?
Answer: 12.8 nM

Question: What about the GI50 [54] of the same compound?
Answer: < 10 nM

Question: What about the TGI [54] of the same compound?
Answer: 11.2 nM

Question: And the GI50 [55]?
Answer: < 10 nM

Question: What about the TGI [55] of the same compound?
Answer: 62.2 nM

Question: What about the GI50 [56] of the same compound?
Answer: < 10 nM

Question: What about the TGI [56] of the same compound?
Answer: < 10 nM

Question: And the GI50 [57]?
Answer: < 10 nM

Question: And the TGI [57]?
Answer: < 10 nM

Question: And the GI50 [58]?
Answer: < 10 nM

Question: What about the TGI [58] of the same compound?
Answer: 256 nM
